Molecules are shown by their SMILES.

Common to all, as to test: Eurofins kinase panel
Common to all, as to format: biochemical
Common to all, as to settings: read-out: Inhibition rate (%)

One assay concerns the target T1, NEK6(h) (Homo sapiens, UniProt Q9HC98).
T1 construct: purchased Eurofins (KinaseProfiler)

A further assay addresses T2, CaMKIIα(h) (Homo sapiens, UniProt Q9UQM7).
T2 construct: purchased Eurofins (KinaseProfiler)

The target in another assay is T3, Met(D1246N)(h) (Homo sapiens, UniProt P08581, D1228N).
T3 construct: purchased Eurofins (KinaseProfiler)
T3 sequence (P08581 956-1390 D1228N limits assumed): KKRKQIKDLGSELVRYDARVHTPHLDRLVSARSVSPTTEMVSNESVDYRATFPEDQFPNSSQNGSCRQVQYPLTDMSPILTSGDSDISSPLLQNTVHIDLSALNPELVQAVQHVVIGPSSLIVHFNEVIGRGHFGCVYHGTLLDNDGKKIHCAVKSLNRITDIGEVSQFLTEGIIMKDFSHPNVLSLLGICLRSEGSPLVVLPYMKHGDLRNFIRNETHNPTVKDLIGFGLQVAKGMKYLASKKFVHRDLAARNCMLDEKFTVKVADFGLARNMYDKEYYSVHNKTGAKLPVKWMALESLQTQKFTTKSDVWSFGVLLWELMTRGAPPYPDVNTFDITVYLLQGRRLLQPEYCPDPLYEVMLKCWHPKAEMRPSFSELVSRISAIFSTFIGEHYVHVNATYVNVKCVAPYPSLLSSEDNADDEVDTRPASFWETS

The target of a further assay is T4, MYO3B(h) (Homo sapiens, UniProt Q8WXR4).
T4 construct: purchased Eurofins (KinaseProfiler)
T4 sequence (Q8WXR4 1-1341): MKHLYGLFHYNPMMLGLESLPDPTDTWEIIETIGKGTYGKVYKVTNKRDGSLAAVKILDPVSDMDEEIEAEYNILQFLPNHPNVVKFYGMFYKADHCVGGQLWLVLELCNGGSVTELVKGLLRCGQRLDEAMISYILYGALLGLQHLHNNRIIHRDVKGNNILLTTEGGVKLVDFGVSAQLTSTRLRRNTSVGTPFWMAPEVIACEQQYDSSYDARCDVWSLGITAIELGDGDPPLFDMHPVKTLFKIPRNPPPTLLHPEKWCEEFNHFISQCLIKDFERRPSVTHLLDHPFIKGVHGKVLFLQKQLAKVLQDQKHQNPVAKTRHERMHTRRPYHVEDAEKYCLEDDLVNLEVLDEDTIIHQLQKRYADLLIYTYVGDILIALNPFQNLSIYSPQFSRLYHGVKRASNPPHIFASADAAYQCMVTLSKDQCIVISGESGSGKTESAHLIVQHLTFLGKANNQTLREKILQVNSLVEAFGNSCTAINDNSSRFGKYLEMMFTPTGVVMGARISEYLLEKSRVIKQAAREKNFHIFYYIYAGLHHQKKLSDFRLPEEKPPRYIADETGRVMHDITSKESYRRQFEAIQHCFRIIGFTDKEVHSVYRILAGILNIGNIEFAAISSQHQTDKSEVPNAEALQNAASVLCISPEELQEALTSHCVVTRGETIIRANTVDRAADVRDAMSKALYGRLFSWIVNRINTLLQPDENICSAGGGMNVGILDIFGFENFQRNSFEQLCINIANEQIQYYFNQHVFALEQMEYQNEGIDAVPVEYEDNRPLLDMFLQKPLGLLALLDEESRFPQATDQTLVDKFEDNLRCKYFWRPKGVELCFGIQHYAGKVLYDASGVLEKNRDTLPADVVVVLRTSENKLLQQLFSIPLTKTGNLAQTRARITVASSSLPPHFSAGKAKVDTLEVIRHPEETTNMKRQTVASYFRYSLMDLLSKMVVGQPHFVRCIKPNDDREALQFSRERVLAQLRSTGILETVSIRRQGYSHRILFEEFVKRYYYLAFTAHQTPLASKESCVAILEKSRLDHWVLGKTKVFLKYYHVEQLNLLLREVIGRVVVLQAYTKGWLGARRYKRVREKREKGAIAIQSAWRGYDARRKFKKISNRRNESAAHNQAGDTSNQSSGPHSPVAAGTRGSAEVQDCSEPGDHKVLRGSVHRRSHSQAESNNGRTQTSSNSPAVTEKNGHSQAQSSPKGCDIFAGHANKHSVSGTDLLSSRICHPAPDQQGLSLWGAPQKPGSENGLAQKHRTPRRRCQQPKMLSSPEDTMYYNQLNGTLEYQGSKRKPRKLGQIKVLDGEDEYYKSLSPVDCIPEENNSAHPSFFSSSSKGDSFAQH

The target of a further assay is T5, EphB1(h) (Homo sapiens, UniProt P54762).
T5 construct: purchased Eurofins (KinaseProfiler)
T5 sequence (P54762 18-984): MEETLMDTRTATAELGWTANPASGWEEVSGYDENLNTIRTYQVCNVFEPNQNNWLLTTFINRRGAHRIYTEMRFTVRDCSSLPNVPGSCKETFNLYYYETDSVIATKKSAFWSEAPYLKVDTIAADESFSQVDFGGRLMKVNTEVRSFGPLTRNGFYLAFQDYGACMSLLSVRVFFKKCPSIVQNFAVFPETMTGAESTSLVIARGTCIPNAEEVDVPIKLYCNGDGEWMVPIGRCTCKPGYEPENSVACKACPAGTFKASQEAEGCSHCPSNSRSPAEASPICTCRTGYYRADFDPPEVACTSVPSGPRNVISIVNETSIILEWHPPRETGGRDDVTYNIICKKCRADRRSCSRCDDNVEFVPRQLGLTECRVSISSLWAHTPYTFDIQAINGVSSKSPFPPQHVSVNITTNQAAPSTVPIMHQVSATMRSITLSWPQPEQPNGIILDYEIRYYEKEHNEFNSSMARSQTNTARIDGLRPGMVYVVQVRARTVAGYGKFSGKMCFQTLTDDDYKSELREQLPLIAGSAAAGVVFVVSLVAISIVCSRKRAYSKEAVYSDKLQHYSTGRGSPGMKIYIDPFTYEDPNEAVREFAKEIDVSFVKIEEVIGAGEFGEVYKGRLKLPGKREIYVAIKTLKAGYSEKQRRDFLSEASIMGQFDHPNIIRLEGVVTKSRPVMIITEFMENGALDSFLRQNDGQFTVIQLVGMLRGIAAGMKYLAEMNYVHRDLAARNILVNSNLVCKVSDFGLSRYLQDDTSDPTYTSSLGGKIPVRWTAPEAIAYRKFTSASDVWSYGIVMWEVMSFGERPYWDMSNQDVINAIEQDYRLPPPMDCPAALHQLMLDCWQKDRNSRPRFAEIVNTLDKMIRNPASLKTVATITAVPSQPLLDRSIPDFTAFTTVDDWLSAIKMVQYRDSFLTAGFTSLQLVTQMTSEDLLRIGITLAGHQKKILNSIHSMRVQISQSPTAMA

T1 sequence (Q9HC98 whole entry): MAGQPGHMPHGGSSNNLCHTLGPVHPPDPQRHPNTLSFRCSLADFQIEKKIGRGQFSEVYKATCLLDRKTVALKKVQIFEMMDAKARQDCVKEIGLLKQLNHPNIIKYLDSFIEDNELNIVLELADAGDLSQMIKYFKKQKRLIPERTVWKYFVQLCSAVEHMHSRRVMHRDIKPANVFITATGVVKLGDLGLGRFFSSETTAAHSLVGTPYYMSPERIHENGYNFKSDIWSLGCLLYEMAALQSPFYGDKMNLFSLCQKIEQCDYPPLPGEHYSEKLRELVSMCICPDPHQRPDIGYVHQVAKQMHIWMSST
T2 sequence (Q9UQM7 whole entry): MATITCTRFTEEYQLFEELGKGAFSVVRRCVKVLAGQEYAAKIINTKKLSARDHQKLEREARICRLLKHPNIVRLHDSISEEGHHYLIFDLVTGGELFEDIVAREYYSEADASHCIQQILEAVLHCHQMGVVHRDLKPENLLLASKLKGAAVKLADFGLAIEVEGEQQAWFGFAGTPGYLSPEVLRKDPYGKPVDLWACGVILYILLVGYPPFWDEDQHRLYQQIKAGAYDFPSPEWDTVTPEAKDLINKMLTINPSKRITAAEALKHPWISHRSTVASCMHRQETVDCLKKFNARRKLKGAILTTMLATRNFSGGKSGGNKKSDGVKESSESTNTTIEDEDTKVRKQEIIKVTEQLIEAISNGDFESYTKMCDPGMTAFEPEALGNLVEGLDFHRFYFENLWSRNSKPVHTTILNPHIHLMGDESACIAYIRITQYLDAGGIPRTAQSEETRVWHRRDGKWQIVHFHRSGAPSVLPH

In the case of `COc1cc(OC)c(Cl)c(-c2ccc3c(NC(=O)c4ccc(N5CCNC(C)(C)C5)cc4)n[nH]c3n2)c1Cl` [3D185], the inhibition (as a rule, the change of the read-out against control, counted positive when it falls) at 0.01 µM is -7% at NEK6(h) (10 nM); -9% on CaMKIIα(h) (10 nM); -18% on Met(D1246N)(h) (10 nM); -4% on MYO3B(h) (10 nM); -9% at EphB1(h) (10 nM). For the same molecule, the inhibition at 0.1 µM at NEK6(h) (100 nM) was 4%; on CaMKIIα(h) (100 nM), 2%; at Met(D1246N)(h) (100 nM), -11%; on MYO3B(h) (100 nM) it was 0%; at EphB1(h) (100 nM), 1%. Besides, the inhibition at 1 µM at NEK6(h) (1000 nM) is 2%; at CaMKIIα(h) (1000 nM), -15%; at Met(D1246N)(h) (1000 nM) it was 3%; on MYO3B(h) (1000 nM) it was 7%; at EphB1(h) (1000 nM), 36%.
